According to patent US20060142193A1, “Selective inhibition of rock1 in cardiac therapy” (BAYLOR COLLEGE OF MEDICINE, priority 2004, published 2006):
Entries after “also recorded” stand apart in the source; their conditions may differ. Values belong to the molecule of their own block, whether it stands above or below them.

Tests used:
[1] = system: conditional caspase 3 (iCasp3); assay: ROCK1 cleavage in cardiomyocytes infected with Ad-G/iCasp3 (conditional caspase 3) and treated with CID; format: cell-based, rat; conditions: for 130 kDa cleavage fragment of ROCK1: cardiomyocytes infected with Ad-G/iCasp3 and treated with CID
Description: To analyze direct effect of caspase 3 activation on ROCK1 cleavage, the present inventors introduced a conditional caspase 3 via an adenoviral-mediated expression system in cultured rat neonatal cardiomyocytes. The adenoviral vector, Ad-G/iCasp3, has been described previously (Shariat et al., 2001; Mallet et al., 2002). This vector expresses a conditional caspase 3 (iCasp3), in which the human caspase 3 was fused to a modified FK506-binding domain, containing a binding site for a non-toxic chemical inducer of dimerization (CID), AP20187. Addition of CID leads to the aggregation and activation this caspase, and a rapid apoptosis in prostate cancer cells (Shariat et al., 2001; Mallet et al., 2002). This is depicted in FIG. 8C.
Cell culture, plasmid constructs, and recombinant adenoviruses. Neonatal rat cardiomyocytes were isolated and cultured in DMEM/F12 medium (1:1) with 10% horse serum (DF10); cells were ready for transfection or virus infection 40 hours after plating. For immunostaining, cells were cultured on pre-coated (with 0.2% gelatin) coverslips. Transfections were performed using LipofectAMINE 2000 (Invitrogen) with Opti-MEM I Reduced Serum Medium (Invitrogen). After 6 hr or O/N, cells were cultured in DF10. With human embryonic kidney (HEK) A293T cells, cells were cultured in DMEM with 10% fetal bovine serum. The cDNA for full length human ROCK-1 cloned into the pCAG-myc vector (pCAG-ROCK-1) was kindly provided by Dr. Narumiya. All ROCK-1 and mutant constructs were tagged with a Myc epitope at the amino-terminus. The Asp718-MscI cDNA fragment encoding ROCKΔ1 mutant (residues 1-1080) was also cloned into the pCAG-myc vector (pCAG-ROCKΔ1) (Ishizaki et al., 1997). A signal lysine at residue 105 was replaced by alanine to generate a kinase deficient mutant, pCAG-ROCK-1KD. The adenoviral vector, Ad-G/iCasp 3, expressing conditional caspase 3, was generously provided by Drs. David Spencer and Kevin Slawin at Baylor College of Medicine. […]

[2] = system: human growth hormone (hGH) transgene; assay: Cardiac-specific RU486-inducible gene-switch expression of human growth hormone in bi-transgenic mice; format: in vivo, mouse; conditions: after 4 days of administration, dose-dependent, estimated
Procedure: Expression of the transgene is induced in all 4 chambers of the bi-transgenic hearts by administration of RU486 for 4 days. […] The serum level of hGH was measured by radioimmunoassay.

[3] = system: myeline basic protein (MBP) kinase (MBP-kinase); assay: Kinase-Glo luminescent kinase assay; format: biochemical; conditions: SRF-N as substrate, ATP
Procedure: In a particular embodiment, the Kinase-Glo luminescent kinase assay from Promega (Madison, Wis.) is employed, which comprises a method of measuring kinase activity by quantifying the amount of ATP remaining in solution following a kinase reaction. […] In additional embodiments, the Km and/or kcat for SRF-N against MBP-Kinase and the IC50 or Ki for PH domain are measured, such as by standard methods in the art.
FIG. 25B illustrates the role of ROCK in processing of its substrates in the presence of ATP.

[4] = system: Dahl salt-sensitive hypertensive rats; conditions: administration to Dahl salt-sensitive hypertensive rats; cited from earlier work
protein kinases A and C = conditions: lower affinity than that for Rho kinase; cited from earlier work
early chick embryos = conditions: treated early chick embryos; cited from earlier work
ROCK1 = ROCK1 cleavage in doxorubicin-treated cultured neonatal rat cardiomyocytes (Western blot); format: cell-based
Description: To determine if ROCK1 is cleaved by caspase 3 in apoptotic cardiomyocytes, the present inventors subjected cultured rat neonatal cardiomyocytes to doxorubicin treatment, which is a potent apoptotic inducer. The 130 kDa cleavage fragment of ROCK1 was detected in doxorubicin-treated myocytes as well as the cleaved PARP. In contrast, cleavage of ROCK2 was not observed. In addition, cleavage of ROCK1 is caspase 3-dependent, as the 130 kDa species was not detected in the presence of caspase 3 inhibitor, Z-VAD.
Cell culture, plasmid constructs, and recombinant adenoviruses. Neonatal rat cardiomyocytes were isolated and cultured in DMEM/F12 medium (1:1) with 10% horse serum (DF10); cells were ready for transfection or virus infection 40 hours after plating. For immunostaining, cells were cultured on pre-coated (with 0.2% gelatin) coverslips. Transfections were performed using LipofectAMINE 2000 (Invitrogen) with Opti-MEM I Reduced Serum Medium (Invitrogen). After 6 hr or O/N, cells were cultured in DF10. With human embryonic kidney (HEK) A293T cells, cells were cultured in DMEM with 10% fetal bovine serum. The cDNA for full length human ROCK-1 cloned into the pCAG-myc vector (pCAG-ROCK-1) was kindly provided by Dr. Narumiya. All ROCK-1 and mutant constructs were tagged with a Myc epitope at the amino-terminus. The Asp718-MscI cDNA fragment encoding ROCKΔ1 mutant (residues 1-1080) was also cloned into the pCAG-myc vector (pCAG-ROCKΔ1) (Ishizaki et al., 1997). A signal lysine at residue 105 was replaced by alanine to generate a kinase deficient mutant, pCAG-ROCK-1KD. The adenoviral vector, Ad-G/iCasp 3, expressing conditional caspase 3, was generously provided by Drs. David Spencer and Kevin Slawin at Baylor College of Medicine. Addition of CID, AP20187 (50 nM, 24 hr), provoked the aggregation and activation of caspase 3 as well as rapid apoptosis (Shariat et al., 2001; Mallet et al., 2002).
Western blot and Malachite green assay. Anti-ROCK-1, caspase 3, PARP, His, α-actin antibodies (Santa Cruz), anti-phospho-AKTser473 (Cell Signaling) and anti-RTEN (Upstate) were purchased. Protein samples for Western blot were prepared and separated as described earlier (Chang et al., 2000). Even loadings were confirmed by Ponceau staining and antibody probed for actin. PTEN activity was evaluated by Malachite green assay (Upstate). 500 μg of cell lysate protein was used for immunoprecipitation.

[5] = system: angiotensin II-infused rats; conditions: administration of fasudil; cited from earlier work
caspase 3 = assay: Ceramide-induced caspase 3 activation and apoptosis in cardiomyocytes (caspase 3 sensor, fluorescent staining); format: cell-based, rat; conditions: without siRNA treatment
Procedure: Apoptosis assay and immunofluorescence analysis. Apoptosis was evaluated using caspase 3 activity and poly(ADP-ribose) polymerase (PARP) cleavage with Western blot in human and mouse heart tissues. With regard to apoptotic cultured neonatal cardiomyocytes, a caspase 3 sensor (BD Biosciences) was introduced to detect the onset of caspase 3 activity (FIG. 9). The vector encodes EYFP (enhanced yellow fluorescent protein) fused with NES (nuclear export signal) and NLS (nuclear localization signal). A caspase 3 specific cleavage site is located between EYFP and NES. […] Upon induction of apoptosis, the export signal is removed by active caspase 3, which triggers the redistribution of EYFP from the cytosol to the nucleus via NLS. The quantification was performed by counting the number of transfected cells with the nuclear localization of fluorescent fusion protein over the total transfected cells. Alexa Fluor 594 phalloidin staining (Molecular Probes) and DAPI staining were applied for F-actin and cellular nuclei visualization, respectively.
siRNAs application for ROCK-1 and PTEN knockdown and ceramide-induced apoptosis. To knockdown ROCK-1 expression in neonatal rat cardiomyocytes, 100 nM siRNA (Ambion) was used with co-transfection of caspase 3 sensor vector as described above. Same amount of siRNA specific for PTEN (Ambion) was applied to human HEK cells. […]

[6] = doxorubicin-treated myocytes, Western blot

cleavage of SRF ([1]; Ad-G/iCasp3 in the presence of CID, data not shown): not detectable
130 kDa cleavage fragment of ROCK1 [1]: detected
Molecule: CC[C@H](C(=O)N1CCCC[C@H]1C(=O)O[C@H](CCc1ccc(OC)c(OC)c1)c1cccc(OCC(=O)NCC(CNC(=O)COc2cccc([C@@H](CCc3ccc(OC)c(OC)c3)OC(=O)[C@@H]3CCCCN3C(=O)[C@@H](CC)c3cc(OC)c(OC)c(OC)c3)c2)CN(C)C)c1)c1cc(OC)c(OC)c(OC)c1 [AP20187]
130 kDa cleavage fragment of ROCK1 ([1]; listed as CID): cleavage of ROCK-1 only in the presence of CID

Molecule: CC#C[C@]1(O)CC[C@H]2[C@@H]3CCC4=CC(=O)CCC4=C3[C@@H](c3ccc(N(C)C)cc3)C[C@@]21C [RU486]
inducible level of hGH in the transgenic heart versus the basal level [2]: 100 to 1000 fold

inhibition activity against MBP-kinase [3]: inhibition activity
Molecule: C[C@@H](N)[C@H]1CC[C@H](C(=O)Nc2ccncc2)CC1 [Y27632]
effect on cardiac hypertrophy and remodeling [4]: regression of cardiac hypertrophy and decreased pathological remodeling
affinity for protein kinases A and C relative to Rho kinase (protein kinases A and C): about 200 times
expression of cardiac α-actin (early cardiac differentiation marker) (early chick embryos): precocious expression of cardiac α-actin was observed

Molecule: COc1cccc2c1C(=O)c1c(O)c3c(c(O)c1C2=O)C[C@@](O)(C(=O)CO)C[C@@H]3O[C@H]1C[C@H](N)[C@H](O)[C@H](C)O1 [doxorubicin]
cleavage of ROCK2 (ROCK1; doxorubicin-treated myocytes): not observed
130 kDa cleavage fragment of ROCK1 (ROCK1; [6]): detected; also recorded: revealed cleavages
cleaved PARP (ROCK1; [6]): detected; also recorded: revealed cleavages
cleavage of SRF (ROCK1; doxorubicin-treated neonatal cardiomyocytes, data not shown): not detectable

Molecule: O=S(=O)(c1cccc2cnccc12)N1CCCNCC1 [fasudil]
effect on angiotensin II-induced cardiovascular changes [5]: suppresses angiotensin II-induced coronary vascular hypertrophy, endothelial dysfunction and cardiomyocyte hypertrophy

Molecule: Z-VAD
130 kDa ROCK1 species in presence of caspase 3 inhibitor (ROCK1; doxorubicin-treated myocytes plus inhibitor): not detected; also recorded: blocked the cleavage

Molecule: ceramide
induction of caspase 3 activation and cellular apoptosis (caspase 3): strongly induced caspase 3 activation
